≈ marks a conversion by molar mass, not a printed value.
Key:
[1] = test system: MCF7; assay: Cytotoxicity against human MCF7 cells after 7 days by MTT assay; format: functional; settings: MCF7, 168 h, read-out: ED50 (the source's name)
[2] = test system: HT-29; assay: Cytotoxicity against human HT-29 cells after 7 days by MTT assay; format: functional; settings: HT-29, 168 h, read-out: ED50 (the source's name)
[3] = test system: A498; assay: Cytotoxicity against human A498 cells after 7 days by MTT assay; format: functional; settings: A498, 168 h, read-out: ED50 (the source's name)
[4] = test system: MIA PaCa-2; assay: Cytotoxicity against human MIAPaCa2 cells after 7 days by MTT assay; format: functional
[5] = test system: PC-3; assay: Cytotoxicity against human PC3 cells after 7 days by MTT assay; format: functional
[6] = test system: A549; assay: Cytotoxicity against human A549 cells after 7 days by MTT assay; format: functional; settings: A549, 168 h, read-out: ED50 (the source's name)
[7] = test system: Artemia; assay: Toxicity in brine shrimp; format: organism-based; settings: in vivo

SMILES	EC50 [1] [µg/mL]	EC50 [2] [µg/mL]	EC50 [3] [µg/mL]	EC50 ([4]; Homo sapiens, MIA PaCa-2, 168 h, read-out: ED50 (the source's name)) [µg/mL]	EC50 ([5]; Homo sapiens, PC-3, 168 h, read-out: ED50 (the source's name)) [µg/mL]	EC50 [6] [µg/mL]	ED50 [4] [×10⁻⁴ ug/ml]	ED50 [5] [×10⁻⁴ ug/ml]	Activity [7] [×10⁻³ ug/ml]
COc1cccc2c1C(=O)c1c(O)c3c(c(O)c1C2=O)C[C@@](O)(C(=O)CO)C[C@@H]3O[C@H]1C[C@H](N)[C@H](O)[C@H](C)O1 [DOXORUBICIN]	0.0897 (≈ 0.165 µM)	0.0162 (≈ 0.0298 µM)	0.0011 (≈ 0.00202 µM)	0.00288 (≈ 0.0053 µM)	0.0213 (≈ 0.0392 µM)	0.00447 (≈ 0.00822 µM)	–	–	–
CCCCCCCCCC[C@@H]1O[C@H]([C@@H]2CC[C@H]([C@H](O)CCCCCCCCCC[C@@H](O)CC3=C[C@H](C)OC3=O)O2)CC[C@H]1O [JIMENEZIN]	> 0.1	0.00425 (≈ 0.00682 µM)	0.0494 (≈ 0.0793 µM)	–	–	0.0164 (≈ 0.0263 µM)	1.69	2.77	5.7

— ChEMBL document CHEMBL1158674, “Jimenezin, a Novel Annonaceous Acetogenin from the Seeds of Rollinia mucosa Containing Adjacent TetrahydrofuranTetrahydropyran Ring Systems ,1” (J Nat Prod, 1998)
